Consider one compound from US20100087476A1, “PHARMACEUTICAL COMPOUNDS” (Biovail Laboratories International (Barbados) S.R.L., priority 2008, published 2010).

Structures are written as SMILES.

What all share (format): in vivo, BALB/c mice
Assay [1] relates to OVA-sensitised mice. As to the kind of experiment: Unrestrained whole body plethysmography (PenH) during methacholine exposure, chicken ovalbumin parenteral sensitization model of asthma. The source says: (§1) An animal model of asthma was used in this study that included parenteral sensitisation of mice with chicken ovalbumin (OVA) together with a suitable adjuvant (Alum). Ovalbumin is widely used as an antigen as a result of its availability and ability to induce a good Th2-type immune response due to lack of any previous exposure to this antigen. Repeated aerosol exposure to ovalbumin post-sensitisation triggers airway changes leading to hyper-responsiveness, similar to that seen in asthma. These changes can be measured following challenge with a bronchoconstricting agent such as methacholine and analysed using whole body plethysmography. Pulmonary plethysmography is used to measure the functional residual capacity (FRC) of the lungs—the volume in the lungs when the muscles of respiration are relaxed—and total lung capacity. The degree of bronchochonstriction (BHR) can be expressed as enhanced pause (Pen H), a calculated value which correlates with measurement of airway resistance, impedance and intrapleural pressure in the same mouse.
Pen H is calculated from the relationship Pen H=(Te/Tr−1)×(Pef/Pif) where;
(§2) Groups of 8 BALB/c mice aged between 5 and 8 weeks of age were sensitised by i.p. (intraperitoneal) injection with ovalalbumin (OVA) in alum on days 0 and 14 (except Group A). All animals were challenged by aerosol exposure to 5% OVA for 20 minutes daily from days 18 to 23. Treatments were given by oral gavage twice daily from day 14 to day 24. At termination (day 24), all animals were subjected to unrestrained whole body plethysmography (whole-body plethysmograph Buxco Electronics, Troy, US) during exposure to increasing doses of methacholine leading to bronchoconstriction and hyper-responsiveness. These changes can be measured using the Buxco software to determine the PenH values for each animal. BAL fluids were collected and cytospins prepared and counted differentially for the presence of infiltrating cells. The supernatant from the BAL was retained and stored at ^−80° C. for possible cytokine analysis. […]

For assay [2], the system named is OVA-sensitised mice. As to the kind of experiment: Lung histopathology scores (pulmonary inflammation), chicken ovalbumin parenteral sensitization model of asthma. The note with it: 1 to 20 mg/kg twice daily oral gavage; probable dose-effect. How it is done:
Groups of 8 BALB/c mice aged between 5 and 8 weeks of age were sensitised by i.p. (intraperitoneal) injection with ovalalbumin (OVA) in alum on days 0 and 14 (except Group A). All animals were challenged by aerosol exposure to 5% OVA for 20 minutes daily from days 18 to 23. Treatments were given by oral gavage twice daily from day 14 to day 24. At termination (day 24), all animals were subjected to unrestrained whole body plethysmography (whole-body plethysmograph Buxco Electronics, Troy, US) during exposure to increasing doses of methacholine leading to bronchoconstriction and hyper-responsiveness. These changes can be measured using the Buxco software to determine the PenH values for each animal. BAL fluids were collected and cytospins prepared and counted differentially for the presence of infiltrating cells. The supernatant from the BAL was retained and stored at ^−80° C. for possible cytokine analysis. Further, lungs were removed and placed in 10% buffered formalin for possible histopathology. […] The HE-stained sections were assessed for lung inflammation. Each lung was scored as described below. Samples were scored in blinded fashion, without knowledge of the experimental protocol or identity of groups. A semi-quantitative grading system was used to describe the degree of inflammatory change in the lungs. Descriptive comments (nature of cellular infiltration) were also recorded. […]

Assay [3] concerns OVA-sensitised mice. Put plainly: Differential cell counts in bronchial lavage fluid (BAL), chicken ovalbumin parenteral sensitization model of asthma.
Source text: as §1
In addition, allergy can by analysed by examination of changes in the lung and lung fluid. This can be achieved by histopathological analysis of lung tissue and analysis of the cellular infiltrate in bronchial lavage fluid (BAL). Further, additional markers of allergy such as the presence of cytokines associated with allergy, IL-4 and IL-13 can be analysed in the BAL fluid.
as §2
Mice were terminated by i.p. injection of euthatal, the trachea exposed and cells obtained from the lungs by performing bronchoalveolar lavage, 3×0.4 ml with PBS. The lavage was pooled, cells counted using a nucleocounter, pelletted and resuspended at 5×10^5 cells per ml. […]
A minimum of 5 areas were counted on each slide. Each cell type was counted and percentage cell numbers determined From this the number of cells/BAL was determined.

Setting [4] is: across 1, 10 and 20 mg/kg twice daily oral gavage, day 14-24.
The mark [5] stands for this setting: highest dose, 20 mg/kg twice daily oral gavage (Group E).
[6] abbreviates: two lower doses (1 and 10 mg/kg twice daily oral gavage, Groups C and D).

Turning to `COc1cc2c(cc1OC)[C@H]1C[C@H](O)[C@@H](CC(C)C)CN1CC2` (single isomer, unassigned) [Isomer B], the “PenH response to methacholine” value in the assay with OVA-sensitised mice [1] (setting [4]) was “dose dependent effect”; with OVA-sensitised mice [1] (setting [6]), “no clear difference between treated and untreated animals”. Further, the “airway hyper-responsiveness (PenH)” value with OVA-sensitised mice [1] (setting [5]) is “reduced airway hyper-responsiveness to levels just above those of the budesonide controls”. Further, the “lung pathology (mean group histopathological score)” value with OVA-sensitised mice [2] is listed as “significant amelioration of pathology”. In addition, the “levels of eosinophil infiltration into the lung” value with OVA-sensitised mice [3] (setting [4]) is “dose dependent effect”; in the assay on OVA-sensitised mice [3] (setting [6]) it was “no clear difference between treated and untreated animals”. The “effect on lung cell infiltration” value in the assay on OVA-sensitised mice [3] (setting [5]) is listed as “small”. Moreover, in the assay on OVA-sensitised mice [3] (setting [5]), the “eosinophil numbers in the BAL” value is reported as “associated reduction in eosinophil numbers in the BAL”.
